Assay results from ChEMBL document CHEMBL1201862, “PubChem BioAssay data set” (2004).
The source made the active and inactive calls.

How the values were obtained:
Cytochrome P450 1A2 = target: T1, Cytochrome P450 1A2 (Homo sapiens, UniProt P05177);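 note: PubChem cytochrome P450 panel assay, CYP1A2 panel member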
T1 sequence (P05177 whole entry): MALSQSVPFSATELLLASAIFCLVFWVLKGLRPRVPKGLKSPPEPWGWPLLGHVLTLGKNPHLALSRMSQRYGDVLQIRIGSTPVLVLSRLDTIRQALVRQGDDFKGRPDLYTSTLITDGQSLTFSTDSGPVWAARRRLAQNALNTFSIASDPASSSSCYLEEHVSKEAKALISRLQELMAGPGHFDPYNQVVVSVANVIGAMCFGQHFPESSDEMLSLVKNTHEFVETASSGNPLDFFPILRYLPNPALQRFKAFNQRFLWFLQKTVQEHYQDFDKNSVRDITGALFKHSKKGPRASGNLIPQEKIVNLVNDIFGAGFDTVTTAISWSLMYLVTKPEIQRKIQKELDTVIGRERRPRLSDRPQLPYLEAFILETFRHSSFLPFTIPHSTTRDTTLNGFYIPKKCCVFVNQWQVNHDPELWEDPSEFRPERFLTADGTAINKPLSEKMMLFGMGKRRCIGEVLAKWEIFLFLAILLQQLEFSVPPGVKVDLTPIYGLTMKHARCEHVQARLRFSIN

Cytochrome P450 2C19 = Cytochrome P450 2C19 (Homo sapiens, UniProt P33261); test: Cytochrome panel assay with activity outcomes. Panel member name: p450-cyp2c19 Compounds with AC50 equal or less than 10 uM are considered active; format: functional
Sequence of Cytochrome P450 2C19 (P33261 whole entry): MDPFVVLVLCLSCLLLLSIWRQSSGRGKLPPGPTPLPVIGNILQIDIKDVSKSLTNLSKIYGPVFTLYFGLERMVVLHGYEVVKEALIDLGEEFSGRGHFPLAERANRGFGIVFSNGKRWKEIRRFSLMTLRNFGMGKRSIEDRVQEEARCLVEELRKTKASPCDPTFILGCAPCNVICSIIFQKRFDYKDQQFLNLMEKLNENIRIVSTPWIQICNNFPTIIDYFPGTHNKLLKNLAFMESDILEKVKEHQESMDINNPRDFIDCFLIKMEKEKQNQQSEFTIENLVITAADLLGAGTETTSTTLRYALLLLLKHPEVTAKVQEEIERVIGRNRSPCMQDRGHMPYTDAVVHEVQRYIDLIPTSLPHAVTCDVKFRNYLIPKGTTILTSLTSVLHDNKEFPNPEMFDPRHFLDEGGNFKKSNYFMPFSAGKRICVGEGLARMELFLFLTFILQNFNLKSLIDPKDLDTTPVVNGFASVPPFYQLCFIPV

Cytochrome P450 2C9 = Cytochrome P450 2C9 (Homo sapiens, UniProt P11712)
Sequence of Cytochrome P450 2C9 (P11712 whole entry): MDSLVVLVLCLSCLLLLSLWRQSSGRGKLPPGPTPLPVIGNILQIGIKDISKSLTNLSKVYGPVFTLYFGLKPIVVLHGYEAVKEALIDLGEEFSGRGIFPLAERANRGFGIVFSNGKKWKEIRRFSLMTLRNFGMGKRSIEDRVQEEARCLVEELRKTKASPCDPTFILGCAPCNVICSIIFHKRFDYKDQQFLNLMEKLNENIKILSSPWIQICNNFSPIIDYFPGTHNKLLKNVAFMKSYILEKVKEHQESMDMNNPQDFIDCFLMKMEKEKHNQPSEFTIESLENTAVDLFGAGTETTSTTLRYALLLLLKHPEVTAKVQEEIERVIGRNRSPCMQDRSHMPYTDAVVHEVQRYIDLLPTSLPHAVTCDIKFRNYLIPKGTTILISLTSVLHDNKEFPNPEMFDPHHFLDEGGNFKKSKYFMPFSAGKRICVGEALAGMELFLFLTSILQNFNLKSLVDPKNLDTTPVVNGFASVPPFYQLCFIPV

[1] = target: T2, Nuclear receptor subfamily 0 group B member 1 (Homo sapiens, UniProt P51843); format: functional, cell-based;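 note: HEK293T cells transfected with SF-1 and DAX-1 plus StAR promoter luciferase reporter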
T2 sequence (P51843 whole entry): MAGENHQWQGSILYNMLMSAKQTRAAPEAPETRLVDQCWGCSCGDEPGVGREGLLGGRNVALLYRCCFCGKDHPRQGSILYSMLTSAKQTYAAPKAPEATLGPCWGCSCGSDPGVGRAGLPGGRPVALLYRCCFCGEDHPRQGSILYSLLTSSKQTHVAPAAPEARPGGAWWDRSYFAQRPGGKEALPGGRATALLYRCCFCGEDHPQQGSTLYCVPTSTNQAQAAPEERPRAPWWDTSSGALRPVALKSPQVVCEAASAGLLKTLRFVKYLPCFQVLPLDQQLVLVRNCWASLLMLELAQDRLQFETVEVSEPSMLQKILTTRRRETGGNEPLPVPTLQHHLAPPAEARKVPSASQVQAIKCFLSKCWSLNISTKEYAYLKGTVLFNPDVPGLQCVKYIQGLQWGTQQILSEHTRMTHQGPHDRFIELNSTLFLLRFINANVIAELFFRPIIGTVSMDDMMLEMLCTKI

cells = format: functional, cell-based
[2] = target: T3, Corticotropin-releasing factor receptor 2/Corticotropin-releasing factor-binding protein (Homo sapiens, UniProt P24387+Q13324); test: Dose Response confirmation of uHTS hits for small molecule antagonists of the CRF-binding protein and CRF-R2 receptor complex.; format: functional; conditions: read-out: IC50_Mean
T3 sequence (Q13324 whole entry): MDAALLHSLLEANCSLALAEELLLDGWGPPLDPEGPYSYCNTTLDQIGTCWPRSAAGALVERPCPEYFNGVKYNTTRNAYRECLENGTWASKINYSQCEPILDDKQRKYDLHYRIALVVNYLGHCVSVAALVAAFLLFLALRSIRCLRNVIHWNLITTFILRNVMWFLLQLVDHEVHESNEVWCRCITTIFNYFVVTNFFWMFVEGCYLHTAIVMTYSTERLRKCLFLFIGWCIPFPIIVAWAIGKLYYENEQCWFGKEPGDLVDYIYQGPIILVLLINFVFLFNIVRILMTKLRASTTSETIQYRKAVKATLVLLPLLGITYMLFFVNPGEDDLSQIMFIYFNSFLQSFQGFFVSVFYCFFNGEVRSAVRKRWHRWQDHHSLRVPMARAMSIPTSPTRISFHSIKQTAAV
T3 sequence (P24387 whole entry): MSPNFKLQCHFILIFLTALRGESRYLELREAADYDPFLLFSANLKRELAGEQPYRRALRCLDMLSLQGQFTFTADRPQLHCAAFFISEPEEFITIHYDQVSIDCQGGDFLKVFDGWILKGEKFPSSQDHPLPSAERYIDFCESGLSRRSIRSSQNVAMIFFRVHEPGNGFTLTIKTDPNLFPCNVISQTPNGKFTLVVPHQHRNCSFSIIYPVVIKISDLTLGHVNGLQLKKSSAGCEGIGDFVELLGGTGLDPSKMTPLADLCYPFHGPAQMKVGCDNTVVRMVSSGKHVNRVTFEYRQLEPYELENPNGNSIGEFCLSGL

[3] = target: T3, Corticotropin-releasing factor receptor 2/Corticotropin-releasing factor-binding protein; test: activators of CRF receptor 2 with binding protein – uHTS hits, confirmation (AID 602473); format: functional; conditions: read-out: EC50_Mean
[4] = blockers of CRF-binding protein–CRF-R2 complex – cell-based, uHTS hits, 384-well, dose response (AID 651639); format: functional, Homo sapiens; conditions: read-out: IC50_Mean
Cytochrome P450 2D6 = Cytochrome P450 2D6 (Homo sapiens, UniProt P10635);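 note: CYP2D6 member of a cytochrome P450 panel assay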
Sequence of Cytochrome P450 2D6 (P10635 whole entry): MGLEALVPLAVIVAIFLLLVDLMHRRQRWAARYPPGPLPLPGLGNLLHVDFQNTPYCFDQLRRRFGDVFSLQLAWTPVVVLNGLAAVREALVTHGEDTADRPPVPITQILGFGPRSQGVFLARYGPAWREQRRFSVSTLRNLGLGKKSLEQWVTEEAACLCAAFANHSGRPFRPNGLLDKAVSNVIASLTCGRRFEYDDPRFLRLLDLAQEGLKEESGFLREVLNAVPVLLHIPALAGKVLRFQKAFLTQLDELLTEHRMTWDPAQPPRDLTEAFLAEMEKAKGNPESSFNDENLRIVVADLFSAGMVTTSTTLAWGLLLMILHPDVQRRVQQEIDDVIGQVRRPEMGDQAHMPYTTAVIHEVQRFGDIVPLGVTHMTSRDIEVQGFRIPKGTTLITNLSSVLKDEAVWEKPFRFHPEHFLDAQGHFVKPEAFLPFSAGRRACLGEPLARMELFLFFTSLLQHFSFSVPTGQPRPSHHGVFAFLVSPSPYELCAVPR

Cytochrome P450 3A4 = Cytochrome P450 3A4 (Homo sapiens, UniProt P08684);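 note: CYP3A4 tested as one member of a cytochrome P450 panel screen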
Sequence of Cytochrome P450 3A4 (P08684 whole entry): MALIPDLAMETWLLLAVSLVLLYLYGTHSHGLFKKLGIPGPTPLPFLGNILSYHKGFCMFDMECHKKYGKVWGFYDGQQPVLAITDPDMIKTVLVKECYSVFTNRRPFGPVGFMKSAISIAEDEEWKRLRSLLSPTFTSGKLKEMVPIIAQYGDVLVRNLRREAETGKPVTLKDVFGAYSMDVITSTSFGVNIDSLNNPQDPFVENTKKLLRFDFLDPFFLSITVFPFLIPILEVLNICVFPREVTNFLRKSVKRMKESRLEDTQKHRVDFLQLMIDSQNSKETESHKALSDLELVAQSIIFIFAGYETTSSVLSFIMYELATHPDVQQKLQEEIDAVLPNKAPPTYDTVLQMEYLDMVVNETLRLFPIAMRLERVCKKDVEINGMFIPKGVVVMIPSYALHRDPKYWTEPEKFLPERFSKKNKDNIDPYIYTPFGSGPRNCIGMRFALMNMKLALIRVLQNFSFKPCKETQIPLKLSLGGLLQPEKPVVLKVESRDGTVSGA

[5] = general mammalian cell viability loss – inhibitor set, cherry-pick, set 2, cytotoxicity control for miR-122 modulator project, dose response (AID 720697); format: functional, cell-based

SMILES: O=C(c1sc2ccccc2c1Cl)N1CCN(c2ccc(F)cc2)CC1
- AC50 (Cytochrome P450 1A2): 2.82 µM (inconclusive)
- AC50 (Cytochrome P450 2C19): 0.0891 µM (inconclusive)
- AC50 (Cytochrome P450 2C9): inconclusive

SMILES: Cc1ccc(Cc2c(-c3ccc(Br)cc3)nc3cc(C)ccn23)cc1
- IC50 [1]: > 67.5 µM (inactive)
- IC50 (cells): > 67.5 µM (inactive)

SMILES: COC(=O)c1cc(OC)c(OC)cc1NC(=O)c1ccco1
- IC50 [2]: 38.9 µM (active)
- EC50 [3]: > 53 µM (inactive)
- IC50 [4]: > 20 µM (inactive)

SMILES: Cc1cc(C)c(C)c(S(=O)(=O)Nc2ccccc2C(=O)O)c1C
- IC50 [2]: 16.3 µM (active)
- EC50 [3]: > 53 µM (inactive)
- IC50 [4]: > 20 µM (inactive)

SMILES: Cc1noc(C)c1-c1nccc(NC2CC2)n1
- AC50 (Cytochrome P450 2D6): 31.6 µM (inconclusive)
- AC50 (Cytochrome P450 2C9): inconclusive

SMILES: C=C1[C@@H](C)C2[C@H](Cc3ccccc3)NC(=O)[C@]23[C@H](OC(C)=O)/C=C/[C@@](C)(O)C(=O)[C@@H](C)C/C=C/[C@H]3[C@@H]1O (stereo not given in full)
- IC50 [1]: 14 µM (inactive)
- IC50 (cells): > 67.5 µM (inactive)

SMILES: FC(F)(F)c1cccc(NC(=S)Nc2cccc(Cl)c2)c1
- AC50 (Cytochrome P450 2D6): 28.2 µM (inconclusive)
- AC50 (Cytochrome P450 3A4): 25.1 µM (inconclusive)
- AC50 (Cytochrome P450 2C9): inconclusive

SMILES: Cc1cc2n(n1)C(c1cn(-c3ccccc3)nc1C)Nc1c(C)cccc1-2 (stereo not given)
- AC50 [5]: 0.562 µM (active)

SMILES: CCCCNC(=O)Cc1coc2ccc3ccccc3c12
- AC50 (Cytochrome P450 2C9): inconclusive

SMILES: c1ccc2c(c1)OCCOCCOCCOCCOc1ccccc1OCCOCCOCCO2
- IC50 [2]: 7.94 µM (active)
- EC50 [3]: 15.4 µM (active)
- IC50 [4]: > 20 µM (inactive)

SMILES: O=C1C(=Cc2ccccc2Cl)CCc2ccccc21
- IC50 [1]: > 67.5 µM (inactive)
- IC50 (cells): > 67.5 µM (inactive)
